# Measurements: ChEMBL document CHEMBL1133915, “Design and synthesis of novel antibacterial agents with inhibitory activity against DNA polymerase III” (Bioorg Med Chem Lett, 2001)
# pIC50: −log10 of the molar value.
# Assays:
# Bacillus subtilis = test: Tested for in vitro anti bacterial activity against Bacillus subtilis ATCC- 6633; assay type: functional
# Enterococcus faecium [1] = test: Tested for in vitro anti bacterial activity against Enterococcus faecium RLAI (ampicillin and imipenem resistant); assay type: functional
# Staphylococcus aureus [2] = test: Tested for in vitro anti bacterial activity against Staphylococcus aureus MB2985 […]; assay type: functional
# [3] = Tested for in vitro antibacterial activity against DNA polymerase III; set-up: species or system Staphylococcus aureus
# Streptococcus pneumoniae [4] = test: Tested for in vitro anti bacterial activity against Streptococcus pneumoniae CL5350; assay type: functional
# Staphylococcus aureus [5] = test: In vitro percent inhibition against Pol III of Staphylococcus aureus at a concentration of 500 uM
# [6] = Tested for in vitro antibacterial activity against DNA polymerase III of Staphylococcus aureus
# Enterococcus faecium [7] = test: Tested for in vitro anti bacterial activity against Enterococcus faecium RLAI (ampicillin and imipenem resistant), growth unaffected at highest level; assay type: functional
# Streptococcus pneumoniae [8] = test: Tested for in vitro anti bacterial activity against Streptococcus pneumoniae CL5350 and growth affected but tested at highest level of inhibition; assay type: functional
SMILES,inhibition (Staphylococcus aureus [5]) [%],MIC (Bacillus subtilis) [µg/mL],MIC (Enterococcus faecium [1]) [µg/mL],MIC (Staphylococcus aureus [2]) [µg/mL],pIC50 [3],further results
Cc1ccc(Nc2cc(Cl)nc(N)n2)cc1I,,5,36,> 36,4.29,MIC (Streptococcus pneumoniae [4]): 18 µg/mL
CCc1cc(Nc2cc(Oc3ccc(Br)cc3)nc(N)n2)ccc1C,97,,,,,pIC50 [6]: 5.00
Cc1ccc(Nc2cc(Cl)nc(N)n2)cc1Br,,8,31,,4.03,MIC (Streptococcus pneumoniae [4]): 31 µg/mL
CCc1cc(Nc2cc(Cl)nc(N)n2)ccc1C,,3,13,> 26,4.28,MIC (Streptococcus pneumoniae [4]): 26 µg/mL
CCc1cc(Nc2cc(Oc3ccc(Cl)cc3)nc(N)n2)ccc1C,13,,,,,
CC(C)(C)c1cccc(Nc2cc(Cl)nc(N)n2)c1,,7,14,7,4.05,MIC (Streptococcus pneumoniae [4]): 14 µg/mL
Cc1ccc(Nc2cc(Cl)nc(N)n2)cc1Cl,,13,27,27,3.90,MIC (Streptococcus pneumoniae [4]): 27 µg/mL
CCc1cc(Nc2cc(Oc3ccc(F)cc3)nc(N)n2)ccc1C,33,,,,,
CCc1cc(Nc2cc(Oc3cccc(C)c3)nc(N)n2)ccc1C,88,,,,,pIC50 [6]: 4.27
Cc1ccc(Nc2cc(Cl)nc(N)n2)cc1C,,6,,> 25,3.94,MIC (Enterococcus faecium [7]): > 25 µg/mL; MIC (Streptococcus pneumoniae [8]): > 25 µg/mL
Nc1nc(Cl)cc(Nc2ccc(Cl)c(Cl)c2)n1,,7,29,29,4.01,MIC (Streptococcus pneumoniae [8]): > 29 µg/mL
Nc1nc(Cl)cc(Nc2ccc3c(c2)CCC3)n1,,3,,> 26,3.92,MIC (Enterococcus faecium [7]): > 26 µg/mL; MIC (Streptococcus pneumoniae [8]): > 26 µg/mL

# Continued, in another order:
inhibition (Staphylococcus aureus [5]) [%],SMILES,MIC (Bacillus subtilis) [µg/mL],MIC (Enterococcus faecium [1]) [µg/mL],MIC (Staphylococcus aureus [2]) [µg/mL],pIC50 [3],further results
2,Cc1ccc(Nc2cc(Sc3ccccc3)nc(N)n2)cc1I,,,,,
20,CSc1cc(Nc2ccc(C)c(I)c2)nc(N)n1,,,,,
21,Cc1cc(Nc2ccc(C)c(I)c2)nc(N)n1,,,,,
27,Cc1ccc(Nc2cc(N(C)C)nc(N)n2)cc1C,,,,,
54,Cc1ccc(Nc2cc(S)nc(N)n2)cc1I,,,,,
